# Assays:
# P388 = experiment: Cytotoxicity against mouse P388 cells; type: functional; settings: for EC50: read-out: ED50 (the source's name)
# DU-145 = experiment: Cytotoxicity against human DU145 cells; type: functional
# physchem = settings: aqueous (not further specified)
# Description: Aqueous solubility of the compound
# KM-20L2 = experiment: Cytotoxicity against human KM20L2 cells; type: functional
# BXPC-3 = experiment: Cytotoxicity against human BxPC3 cells; type: functional
# NCI-H460 = experiment: Cytotoxicity against human NCI-H460 cells; type: functional
# MCF7 = experiment: Cytotoxicity against human MCF7 cells; type: functional
# SF-268 = experiment: Cytotoxicity against human SF268 cells; type: functional
# [1] = buffer
# Description: Aqueous solubility of the compound
Compound,EC50 (P388) [µg/mL],GI50 (DU-145) [µg/mL],solubility (physchem) [µg/mL],GI50 (KM-20L2) [µg/mL],GI50 (BXPC-3) [µg/mL],GI50 (NCI-H460) [µg/mL],GI50 (MCF7) [µg/mL],GI50 (SF-268) [µg/mL],solubility [1] [µg/mL],ED50 (P388) [×10⁻² µg/ml]
O=C1N[C@@H]2C(=C[C@H](O)[C@H]3OP(=O)([O-])O[C@H]32)c2cc3c(c([O-])c21)OCO3.[Ca+2] [CALCIUM NARCISTATIN],0.0223,0.0093,< 1000,0.059,0.045,0.12,0.059,0.031,–,–
O=C1N[C@@H]2C(=C[C@H](O)[C@H]3OP(=O)([O-])O[C@H]32)c2cc3c(c(O)c21)OCO3.[Cs+] [CESIUM NARCISTATIN],0.183,0.13,< 13000,0.66,0.41,> 1,0.62,0.33,–,–
O=C1N[C@@H]2C(=C[C@H](O)[C@H]3OP(=O)(O)O[C@H]32)c2cc3c(c(O)c21)OCO3.c1c[nH]cn1 [IMIDAZOLIUM NARCISTATIN],0.24,0.44,5800,> 1,0.45,> 1,0.9,0.38,–,–
O=C1N[C@@H]2C(=C[C@H](O)[C@H]3OP(=O)([O-])O[C@H]32)c2cc3c(c(O)c21)OCO3.[Li+] [LITHIUM NARCISTATIN],0.121,0.13,> 50000,0.26,0.25,0.3,0.31,0.17,–,–
O=C1N[C@@H]2C(=C[C@H](O)[C@H]3OP(=O)([O-])O[C@H]32)c2cc3c(c([O-])c21)OCO3.[Mg+2] [MAGNESIUM NARCISTATIN],0.17,0.1,< 1500,0.31,0.19,0.29,0.25,0.14,–,–
C1COCCN1.O=C1N[C@@H]2C(=C[C@H](O)[C@H]3OP(=O)(O)O[C@H]32)c2cc3c(c(O)c21)OCO3 [MORPHOLINIUM NARCISTATIN],0.232,0.14,> 13000,0.54,0.25,> 1,0.48,0.24,–,–
O=C1N[C@@H]2C(=C[C@H](O)[C@H]3OP(=O)(O)O[C@H]32)c2cc3c(c(O)c21)OCO3 [NARCISTATIN],0.275,0.16,4000,0.53,0.33,0.47,0.35,0.22,–,–
C1CNCCN1.O=C1N[C@@H]2C(=C[C@H](O)[C@H]3OP(=O)(O)O[C@H]32)c2cc3c(c(O)c21)OCO3 [PIPERAZINIUM NARCISTATIN],0.0378,0.032,1900,0.22,0.1,0.24,0.17,0.099,–,–
O=C1N[C@@H]2C(=C[C@H](O)[C@H]3OP(=O)([O-])O[C@H]32)c2cc3c(c(O)c21)OCO3.[K+] [POTASSIUM NARCISTATIN],0.242,0.26,11000,0.56,0.36,0.67,0.4,0.19,–,–
O=C1N[C@@H]2C(=C[C@H](O)[C@H]3OP(=O)(O)O[C@H]32)c2cc3c(c(O)c21)OCO3.c1ccncc1 [PYRIDINIUM NARCISTATIN],0.191,0.17,–,0.34,0.22,0.27,0.27,0.15,–,–
C=C[C@@H]1CN2CC[C@@H]1C[C@H]2[C@@H](O)c1ccnc2ccc(OC)cc12.O=C1N[C@@H]2C(=C[C@H](O)[C@H]3OP(=O)(O)O[C@H]32)c2cc3c(c(O)c21)OCO3 [QUINIDINIUM NARCISTATIN],0.271,0.22,–,0.58,0.31,0.77,0.5,0.25,–,–
C=C[C@@H]1CN2CC[C@@H]1C[C@@H]2[C@H](O)c1ccnc2ccc(OC)cc12.O=C1N[C@@H]2C(=C[C@H](O)[C@H]3OP(=O)(O)O[C@H]32)c2cc3c(c(O)c21)OCO3 [QUININIUM NARCISTATIN],0.0342,0.013,–,0.12,0.051,0.17,0.12,0.045,–,–
O=C1N[C@@H]2C(=C[C@H](O)[C@H]3OP(=O)([O-])O[C@H]32)c2cc3c(c(O)c21)OCO3.[Na+] [SODIUM NARCISTATIN],0.255,0.12,60000,0.45,0.32,> 1,0.56,0.23,–,–
O=C1N[C@@H]2C(=C[C@H](O)[C@H]3OP(=O)([O-])O[C@H]32)c2cc3c(c(O)c21)OCO3.O=C1N[C@@H]2C(=C[C@H](O)[C@H]3OP(=O)([O-])O[C@H]32)c2cc3c(c(O)c21)OCO3.[Zn+2] [ZINC NARCISTATIN],0.0287,0.016,1700,0.16,0.069,0.21,0.14,0.053,–,–
MANGANESE NARCISTATIN [listing 1 of 2 here],–,–,–,–,–,–,–,–,< 3000,–
MANGANESE NARCISTATIN [listing 2 of 2 here],–,0.034,–,0.13,0.049,0.15,0.07,0.04,–,4.27
